# How the values were obtained:
# HTCFs = assay: Collagen Contraction Assay III (TGFB1-induced); format: cell-based, human; settings: ASA 1000 or 1500 μg/ml, with or without gentamicin; TGFB1 2 ng/ml added at 48 hrs
# Protocol: A modified delayed release fibroblast populated collagen lattice model was used to assess inhibition of TGFB1-induced collagen contraction by ASA and gentamicin. HTCFs were seeded at a density of 2.5×10^5 cells/mL within an extracellular matrix (ECM) mixture containing 400 ul of rat tail-derived type I collagen (1.8 mg/ml), 80 ul of neutralizing solution (equal parts Waymouth's media (Gibco, CAT. NO: 11220035) and 0.275M NaOH) and 20 ul of HTCF conditioned media (concentrated to 25× to obtain a 1× final concentration within the 500 ul matrix solution). The cell-collagen solution was pipetted gently to ensure homogenous distribution of HTCFs while avoiding the production of air bubbles, then 500 ul were pipetted into each well of a 24-well tray. […]
# Tension was allowed to build up within the tethered matrix at 37 C and 5% CO2 for 72 hours before a sterile spatula was used to detach each collagen construct from the edges of the culture well. Plates were then immediately scanned on a flat bed laser scanner for a baseline area reading and then measured again regularly for a total of 4 days. […] The surface area of each collagen construct was measured using ImageJ (NIH) and standardized against the baseline surface area measurement to express changes in area as a percentage of original surface area. […]
# [1] = system: human Tenon's capsule fibroblasts (HTCFs); assay: Collagen Contraction Assay I (delayed release fibroblast populated collagen lattice); format: cell-based
# Protocol: The delayed release fibroblast populated collagen lattice model was used to assess inhibition of gel contraction [58] by ASA and gentamicin. […] Cell free collagen lattices were prepared identically, however to isolate the effects of HTCFs alone on collagen, constructs without HTCFs were cast as a negative control. The cell-collagen solution was pipetted gently to ensure homogenous distribution of HTCFs while avoiding the production of air bubbles, then 500 ul were pipetted into each well of a 24-well tray. Collagen constructs were allowed to polymerize at 37 C for 45 minutes before adding low serum culture media containing DMEM, 2% Fetal Bovine Serum (FBS), 1% penicillin/streptomycin (P/S).
# Tension was allowed to build up within the tethered matrix at 37 C and 5% CO2 for 72 hours before a sterile spatula was used to detach each collagen construct from the edges of the culture well. Plates were then immediately scanned on a flat bed laser scanner and then once per hour for the first 12 hours, then daily for a total of 4 days. The surface area of each collagen construct was measured using ImageJ (NIH) and standardized against the baseline surface area measurement to express changes in area as a percentage of original surface area.
# Vehicle control treatment solution comprised of DMEM with 2% FBS and 1% penicillin/streptomycin. The gentamicin treatment solution contained DMEM with 2% FBS, 1% penicillin/streptomycin and 1000 μg/ml gentamicin (w/vol) (Sigma-Aldrich, CAT. NO: G1397). The ASA treatment solution contained DMEM with 2% FBS, 1% penicillin/streptomycin and 2000 μg/ml ASA (w/vol) (Sigma-Aldrich, CAT. NO: A5376). The gentamicin-ASA combination treatment solution (Gent+ASA) contained DMEM with 2% FBS, 1% penicillin/streptomycin, 1000 μg/ml gentamicin (w/vol.) and 2000 μg/ml ASA (w/vo).
# Culture media was removed from collagen constructs twice daily and replaced with one of the four treatment solutions for a duration of 15 minutes. […]
structure (smiles),measurement,setting,value
"CC(=O)Oc1ccccc1C(=O)O [ASA, acetylsalicylic acid]",HTCF-mediated collagen contraction before and after TGFb1 stimulus,HTCFs,"significantly impair HTCF-mediated contraction, at all concentrations assessed, both before and after stimulus with TGFb1"
same,contraction evident by the end of the four-day period,[1]; ASA 2000 μg/ml alone,approximately 20%
same,HTCF mediated collagen contraction,"[1]; gentamicin 1000 μg/ml and/or ASA 2000 μg/ml, 15 minutes twice daily, four day assay, vs vehicle control",significantly inhibited contraction compared to vehicle control at all time points after the first hour of the experiment
